In PubChem BioAssay AID330 (DTP/NCI, 2004):
Several values for one entry are separate records, joined by “and”; a condition that tells them apart may be missing. Identical values can stand only once. Toxic doses and inconclusive results are not listed. Rule for the calls: active = survival T/C of 150% or more; inactive = T/C below 125% in these data.

Tested on: P388 leukemia ip, CD2F1 mice, survival T/C
Test: NCI In Vivo Anticancer Drug Screen. Data for tumor model P388 Leukemia (intraperitoneal) in CD2F1 (CDF1) mice
Settings: endpoint: median survival time, higher = longer survival
Outline: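 Mice carrying the transplanted tumor received test compound or vehicle. Survival was recorded in each group, and the value is the treated-group measurement divided by that of the vehicle-treated control group.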

[1] = dose: 60.0 mg/kg/injection, schedule: Q01DX005 (ip), vehicle: saline with Tween-80
[2] = dose: 120.0 mg/kg/injection, schedule: Q01DX005 (ip), vehicle: saline with Tween-80
[3] = dose: 240.0 mg/kg/injection, schedule: Q01DX005 (ip), vehicle: saline with Tween-80
[4] = dose: 100.0 mg/kg/injection, schedule: Q04DX003 (ip), vehicle: saline with Tween-80
[5] = dose: 200.0 mg/kg/injection, schedule: Q04DX003 (ip), vehicle: saline with Tween-80
[6] = dose: 6.25 mg/kg/injection, schedule: Q01DX005 (ip), vehicle: Klucel (hydroxypropylcellulose) (HPC)
[7] = dose: 50.0 mg/kg/injection, schedule: Q01DX005 (ip), vehicle: saline

Measured: T/C

CC(=O)OC(C)(C)c1ccccc1[S+]1OC(C)(C)c2ccccc21 (stereo unspecified)
inactive: dose: 25.0 mg/kg/injection, schedule: Q01DX001 (ip), vehicle: other 101 % of control | dose: 50.0 mg/kg/injection, schedule: Q01DX001 (ip), vehicle: other 104 % of control | dose: 100.0 mg/kg/injection, schedule: Q01DX001 (ip), vehicle: other 107 % of control

COc1ccc(C(O)c2cnc(C)n2Cc2ccccc2)cc1 (stereo unspecified)
inactive: [1] 99 % of control | [2] 100 % of control | [3] 94 % of control

O=C(/C=C/c1cccc([N+](=O)[O-])c1)Nc1cccc(S(=O)(=O)F)c1
inactive: [1] 102 % of control | [2] 93 % of control | [3] 91 % of control

CCOC(OCC)c1cccc([N+](=O)[O-])c1
inactive: [4] 112 % of control | [5] 106 % of control | dose: 400.0 mg/kg/injection, schedule: Q04DX003 (ip), vehicle: saline with Tween-80 117 % of control

CNc1ccccc1C(=O)NN=C1c2ccccc2-c2ccccc21
inactive: dose: 50.0 mg/kg/injection, schedule: Q01DX009 (ip), vehicle: saline with Tween-80 100 % of control | dose: 100.0 mg/kg/injection, schedule: Q01DX009 (ip), vehicle: saline with Tween-80 106 % of control | dose: 200.0 mg/kg/injection, schedule: Q01DX009 (ip), vehicle: saline with Tween-80 99 % of control

O=C1C(=Cc2cc(Cl)c(O)c(Cl)c2)C(=O)c2ccccc21
inactive: dose: 100.0 mg/kg/injection, schedule: Q04DX002 (ip), vehicle: saline 97 % of control | dose: 200.0 mg/kg/injection, schedule: Q04DX002 (ip), vehicle: saline 86 % of control | dose: 400.0 mg/kg/injection, schedule: Q04DX002 (ip), vehicle: saline 88 % of control

CCCCOC(=O)N[C@H]1CCc2cc(OC)c(OC)c(OC)c2-c2ccc(SC)c(=O)cc21
inactive: dose: 0.38 mg/kg/injection, schedule: Q01DX009 (ip), vehicle: Klucel (hydroxypropylcellulose) (HPC) 112 % of control | dose: 0.75 mg/kg/injection, schedule: Q01DX009 (ip), vehicle: Klucel (hydroxypropylcellulose) (HPC) 122 % of control and 123 % of control | dose: 1.5 mg/kg/injection, schedule: Q01DX009 (ip), vehicle: Klucel (hydroxypropylcellulose) (HPC) 114 % of control | dose: 12.0 mg/kg/injection, schedule: Q01DX009 (ip), vehicle: Klucel (hydroxypropylcellulose) (HPC) 94 % of control

CN(C)CCN(Cc1ccccc1)c1ccc2ccccc2n1
inactive: [6] 97 % of control | dose: 12.5 mg/kg/injection, schedule: Q01DX005 (ip), vehicle: Klucel (hydroxypropylcellulose) (HPC) 97 % of control | dose: 25.0 mg/kg/injection, schedule: Q01DX005 (ip), vehicle: Klucel (hydroxypropylcellulose) (HPC) 99 % of control

Nc1nnc2nc(CC(=O)c3ccccc3[N+](=O)[O-])c(CC(=O)c3ccccc3[N+](=O)[O-])nn12
inactive: [1] 100 % of control | [2] 101 % of control | [3] 100 % of control

CCN(C)c1cc2c3c(c1)CCCN3CCC2
inactive: dose: 1.25 mg/kg/injection, schedule: Q01DX009 (ip), vehicle: saline 113 % of control | dose: 1.25 mg/kg/injection, schedule: Q04DX003 (ip), vehicle: saline 100 % of control | dose: 2.5 mg/kg/injection, schedule: Q01DX009 (ip), vehicle: saline 109 % of control | dose: 2.5 mg/kg/injection, schedule: Q04DX003 (ip), vehicle: saline 95 % of control | dose: 5.0 mg/kg/injection, schedule: Q01DX009 (ip), vehicle: saline 104 % of control | dose: 5.0 mg/kg/injection, schedule: Q04DX003 (ip), vehicle: saline 109 % of control

CC(C)(C)OC(=O)NC(CCC(N)=O)C(=O)O (stereo unspecified)
inactive: [7] 104 % of control | dose: 100.0 mg/kg/injection, schedule: Q01DX005 (ip), vehicle: saline 104 % of control | dose: 200.0 mg/kg/injection, schedule: Q01DX005 (ip), vehicle: saline 103 % of control

NC(CCC(=O)NC(CS(=O)(=O)O)C(=O)O)C(=O)O (stereo unspecified)
inactive: dose: 60.0 mg/kg/injection, schedule: Q01DX005 (ip), vehicle: saline 108 % of control | dose: 120.0 mg/kg/injection, schedule: Q01DX005 (ip), vehicle: saline 108 % of control | dose: 240.0 mg/kg/injection, schedule: Q01DX005 (ip), vehicle: saline 108 % of control

COc1cc(C(=O)C(CN(C)C)CN(C)C)cc(OC)c1OC
inactive: dose: 12.5 mg/kg/injection, schedule: Q01DX005 (ip), vehicle: saline 101 % of control | dose: 25.0 mg/kg/injection, schedule: Q01DX005 (ip), vehicle: saline 100 % of control | [7] 107 % of control and 114 % of control

Cn1c(O)c(N=NC(N)=S)c2ccccc21
inactive: [4] 95 % of control | [5] 87 % of control

O=c1[nH]c(Cl)nc2n[nH]c(Br)c12
inactive: dose: 100.0 mg/kg/injection, schedule: Q01DX001 (ip), vehicle: saline with Tween-80 98 % of control | dose: 200.0 mg/kg/injection, schedule: Q01DX001 (ip), vehicle: saline with Tween-80 103 % of control

CC1=NN(C2=NS(=O)(=O)c3ccccc3N2c2ccccc2)C(=O)C1
inactive: dose: 100.0 mg/kg/injection, schedule: Q04DX002 (ip), vehicle: saline with Tween-80 108 % of control | dose: 200.0 mg/kg/injection, schedule: Q04DX002 (ip), vehicle: saline with Tween-80 106 % of control | dose: 400.0 mg/kg/injection, schedule: Q04DX002 (ip), vehicle: saline with Tween-80 97 % of control

O=C1NC2Cc3ccccc3C(C2)O1 (stereo unspecified)
inactive: [1] 101 % of control | [2] 100 % of control | [3] 93 % of control

OCC(O)C(O)C(O)C(O)CO.[Cu+2].[Cu] (stereo unspecified)
inactive: dose: 3.12 mg/kg/injection, schedule: Q01DX005 (ip), vehicle: Klucel (hydroxypropylcellulose) (HPC) 88 % of control | [6] 92 % of control

COc1cc2c(cc1OC)[C@H]1[C@H](C)c3ccc4c(c3CN1CC2)OCO4
inactive: dose: 12.5 mg/kg/injection, schedule: Q04DX002 (ip), vehicle: Klucel (hydroxypropylcellulose) (HPC) 97 % of control | dose: 25.0 mg/kg/injection, schedule: Q04DX002 (ip), vehicle: Klucel (hydroxypropylcellulose) (HPC) 95 % of control | dose: 50.0 mg/kg/injection, schedule: Q04DX002 (ip), vehicle: Klucel (hydroxypropylcellulose) (HPC) 103 % of control and 106 % of control

CCN(CC)P1(=O)OC(c2ccccc2)=CCN1c1ccc(OC)cc1 (stereo unspecified)
inactive: dose: 50.0 mg/kg/injection, schedule: Q01DX005 (ip), vehicle: Klucel (hydroxypropylcellulose) (HPC) 102 % of control | dose: 100.0 mg/kg/injection, schedule: Q01DX005 (ip), vehicle: Klucel (hydroxypropylcellulose) (HPC) 110 % of control | dose: 200.0 mg/kg/injection, schedule: Q01DX005 (ip), vehicle: Klucel (hydroxypropylcellulose) (HPC) 103 % of control

CCCCCCCCCCNC1CC(OC2CC(O)(C(C)=O)Cc3c(O)c4c(c(O)c32)C(=O)c2c(OC)cccc2C4=O)OC(C)C1O (stereo unspecified)
inactive: dose: 4.7 mg/kg/injection, schedule: Q04DX003 (ip), vehicle: water 101 % of control | dose: 9.4 mg/kg/injection, schedule: Q04DX003 (ip), vehicle: water 97 % of control | dose: 18.8 mg/kg/injection, schedule: Q04DX003 (ip), vehicle: water 106 % of control | dose: 37.5 mg/kg/injection, schedule: Q04DX003 (ip), vehicle: water 92 % of control

CCCCCCCCCCCCCCCC(=O)OCC(COP(=O)(O)OCC(COC(=O)CCCCCCCCCCCCCCC)OC(=O)CCCCCCCCCCCCCCC)OC(=O)CCCCCCCCCCCCCCC (stereo unspecified)
inactive: dose: 50.0 mg/kg/injection, schedule: Q01DX009 (ip), vehicle: saline 98 % of control | dose: 100.0 mg/kg/injection, schedule: Q01DX009 (ip), vehicle: saline 100 % of control | dose: 200.0 mg/kg/injection, schedule: Q01DX009 (ip), vehicle: saline 101 % of control

Cc1ccc(-c2nc3c(C)nc(-c4ccccc4)nc3n2Nc2ccccc2)cc1
inactive: dose: 50.0 mg/kg/injection, schedule: Q01DX005 (ip), vehicle: saline with Tween-80 94 % of control | dose: 100.0 mg/kg/injection, schedule: Q01DX005 (ip), vehicle: saline with Tween-80 90 % of control | dose: 200.0 mg/kg/injection, schedule: Q01DX005 (ip), vehicle: saline with Tween-80 91 % of control
